# Source: US10793543B2, “Selective C-KIT kinase inhibitor” (PRECEDO PHARMACEUTICALS CO., LTD, priority 2016, dated 2020)
# Experiments:
# [1] = system: cells expressing wild-type C-KIT kinase; assay: Cell proliferation, C-KIT cells; type: cell-based; details: cells expressing wild-type C-KIT kinase, summary of Table 2
# From the text: In the present example, the following cells were used: chronic myelogenous leukemia cells K562 (expressing P210 Bcr-Abl mutant gene), human megakaryocytic leukemia cells MEG-01 (expressing P210 Bcr-Abl mutant gene), human peripheral blood basophilic leukemia cells Ku812 (expressing Bcr-Abl mutant gene) (all above cells purchased from ATCC, USA), human gastrointestinal stromal tumor cell lines GIST-T1 cells (expressing wild-type C-KIT gene) (purchased from Cosmo Bio Co., Ltd., Japan), human gastrointestinal stromal tumor cell lines GIST-882 cells (expressing wild-type C-KIT gene) (presented by the Professor Gray Lab, Dana-Farber Cancer Institute, Harvard University, USA), mouse pro-B cells BaF3 (purchased from ATCC, USA).
# In addition, in the present example, further uses: mouse P210/BaF3 (stably expressing P210 Bcr-Abl mutant gene), mouse Tel-ABL-BaF3 (stably expressing wild-type ABL kinase), mouse Tel-cKit-BaF3 (stably expressing C-KITwild-type kinase), mouse Tel-cKit/V559D-BaF3 (stably expressing C-KIT V559D mutant kinase), mouse Tel-cKit/V559D/V654A-BaF3 (stably expressing C-KIT V559D/V654A mutant kinase), mouse Tel-cKit/N822K-BaF3 (stably expressing C-KIT N822K mutant kinase), mouse Tel-cKit/V654A-BaF3 (stably expressing C-KIT V654A mutant kinase), mouse Tel-cKit/L567P-BaF3 (stably expressing C-KIT L567P mutant kinase), mouse Tel-cKit/T670I-BaF3 (stably expressing C-KIT T670I mutant kinase), mouse Tel-PDGFRα-BaF3 (stably expressing PDGFRα kinase), mouse Tel-PDGFRβ-BaF3 (stably expressing PDGFRβ kinase), mouse Tel-VEGFR2-BaF3 (stably expressing VEGFR2 kinase), mouse Tel-RET-BaF3 (stably expressing RET kinase). The above cell lines were all constructed by our laboratory according to the following method: the kinase region sequences of human P210 Bcr-Abl, ABL, C-KIT, C-KIT V559D, C-KIT V559D/V654A, C-KIT N822K, C-KIT V654A, C-KIT L567P, C-KIT T670I, PDGFRα, PDGFRβ, VEGFR2, RET were amplified respectively by PCR, inserted respectively into MSCV-Puro vectors harboring N-terminal TEL fragment and/or NPM fragment and/or TPR fragment (Clontech), then the vectors were stably transfected into mouse BaF3 cells by retrovirus methods and growth factor IL-3 was removed, eventually obtaining cell lines that are transferred protein (P210 Bcr-Abl, ABL, C-KIT, C-KIT V559D, C-KIT V559D/V654A, C-KIT N822K, C-KIT V654A, C-KIT L567P, C-KIT T670I, PDGFRα, PDGFRβ, VEGFR2, RET)-dependent.
# The cells were incubated for 72 hours, and then the number of viable cells was quantified with a microplate reader by using CCK-8 Cell Viability Assay Kit (purchased from Bestbio Company, Shanghai, China) (CCK-8 can be reduced by dehydrogenase in living cells to a highly water-soluble yellow formazan product, and the amount of formazan produced is proportional to the number of living cells).
# [2] = system: GIST-882 cells; assay: Apoptosis, PARP and Caspase 3 cleavage by Western Blot, GIST-882; type: cell-based, human; details: GIST-882, 0.3 μM, 72 hours
# From the text: The effects of different concentrations of drugs on protein cleavage of DNA repairase poly(ADP-ribose) polymerase (PARP) and Caspase (cysteinyl aspartate-specific proteinase) 3 at different periods of time were examined by Western Blot.
structure (smiles),measurement,setting,value
Cc1ccc(NC(=O)c2cccc(C(F)(F)F)c2)cc1OC1CCN(C(=O)c2ccncc2)CC1 [Compound 4],GI50,[1],< 500 nM
same,cleavage of PARP and Caspase 3,[2],significant cleavage
